Patent US20220080027A1, “METHODS OF TREATING NEURODEGENERATIVE DISEASES BY TARGETING THE PURINERGIC AND/OR ADENOSINE RECEPTORS” (Board of Regents, The University of Texas System, priority 2020, published 2022)
“Also recorded” adds a separate entry of the source.

How the values were obtained:
[1] = test system: PBMCs obtained from HIV-infected individuals; experiment: Spontaneous PGE2 release by PBMCs from HIV-infected individuals; format: cell-based, human; settings: no stimulation, Prob 500 μM, 10Panx1 peptide 300 μM
Method: (§1) Analysis of IL-1β and PGE2 release. Plasma/serum was collected, divided into aliquots, and stored at −80° C. There were no freeze-thaw cycles before analysis. Plasma/serum was analyzed for TNF-α, IL-1β (Quantikine ELISA kit; R and D Systems, Minneapolis Minn., USA) and PGE2 (Abcam, Cambridge, Mass., USA) by enzyme-linked immunosorbent assay (ELISA) according to the manufacturer's instructions.
(§2) Uninfected and HIV-infected PBMCs were isolated as described above.

[2] = test system: PBMCs obtained from uninfected individuals; experiment: ATP release by PBMCs from uninfected individuals (ATPlite); format: cell-based, human; settings: for effect on release of ATP in response to HIV-gp120: PBMCs from uninfected individuals, Prob 500 μM, 10Panx1 peptide 300 μM, TAK779 5 μM, AMD3100 5 μM; for induction of ATP secretion: treatment of uninfected PBMCs, 30 min
Method: (§3) ATP Assay. […] Luminescence was measured using a PerkinElmer EnVision Multilabel Plate Reader. […] To assure rigor in these determinations, some samples were submitted for blinded analysis of ATP levels using mass spectrometry (University of North Dakota, N. Dak.).
as §2

[3] = molecular target: T1, Panx-1 channels (Homo sapiens, UniProt Q96RD7); experiment: Ethidium (Etd) dye uptake, PBMCs from HIV-infected individuals; format: cell-based; settings: for effect on spontaneous Panx-1 channel opening (Etd uptake): Prob 500 μM, 10Panx peptide 200 μM; for effect on pannexin-1 channel opening and Etd uptake: FIG. 1F legend: PROB 50 μM, CBX 50 μM, PEP 300 μM, n=60
T1 construct: PBMCs isolated from uninfected individuals maintain the pannexin-1 channels in a closed stage; endogenous in cells; host or cells: freshly isolated human PBMCs (uninfected or HIV-infected donors)
T1 sequence (Q96RD7 whole entry): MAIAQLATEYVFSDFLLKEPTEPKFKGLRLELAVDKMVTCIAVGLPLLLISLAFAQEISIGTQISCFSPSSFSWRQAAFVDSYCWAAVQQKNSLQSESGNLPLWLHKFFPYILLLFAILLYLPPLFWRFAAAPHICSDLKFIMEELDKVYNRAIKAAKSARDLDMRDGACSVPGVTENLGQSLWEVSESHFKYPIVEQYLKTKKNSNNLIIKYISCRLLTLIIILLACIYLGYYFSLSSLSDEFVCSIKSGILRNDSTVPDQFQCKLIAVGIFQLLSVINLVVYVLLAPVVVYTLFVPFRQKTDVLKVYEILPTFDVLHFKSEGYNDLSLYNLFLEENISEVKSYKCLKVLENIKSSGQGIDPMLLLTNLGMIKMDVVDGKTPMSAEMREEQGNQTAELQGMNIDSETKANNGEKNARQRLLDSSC
Method: (§4) Dye uptake and time-lapse microscopy. To characterize the functional state of Panx-1 channels, dye-uptake experiments using ethidium (Etd) bromide were performed (Cat #15585011, ThermoFisher, Grand Island, N.Y., USA). Cells were washed twice in HBSS and then exposed to Locke's solution (containing 154 mM NaCl, 5.4 mM KCl, 2.3 mM CaCl2, 5 mM HEPES, and pH 7.4) with 5 μM Etd and time-lapse microscopy were then performed. Phase-contrast and fluorescence microscopy with time-lapse imaging were used to record cell appearance and fluorescence-intensity changes in each condition. Fluorescence was recorded every 30 s. The NIH ImageJ program was used for off-line image analysis and fluorescence quantification. For data representation and calculation of Etd uptake slopes, the average of two independent background fluorescence (FB) (expressed as A.U.) was subtracted from mean fluorescent intensity (F1). Results of this calculation (F1-FB), for at least 20 cells, were averaged and plotted against time (expressed in minutes). Slopes were calculated using Microsoft Excel software and expressed as A.U./min. The microscope and camera settings remained the same in all experiments. Dead cells or cells with a damaged plasma membrane were identified during the time-lapse microscopy as a result of their nonspecific Etd uptake rate, determined by lack of time dependency and stability in dye uptake (not inhibited by channel blockers), and were not quantified.
(§5) However, the chronic effects of HIV infection on Panx-1 channel activity were unknown. To determine the status of the channel, Panx-1 channel opening was determined by Ethidium (Etd, 5 μM) uptake rate Ethidium only crosses the plasma membrane in healthy cells by passing through specific large channels, such as Connexin (Cx) and Pannexin (Panx) hemichannels, and its rate of intracellular accumulation is reflective of channel opening.
To assess the opening of the Panx-1 channels on PBMCs isolated from HIV-infected individuals, the inventors used a similar approach as described above. The inventors analyzed Panx-1 channel opening using dye uptake rate on PBMCs isolated from 60 different HIV-infected individuals, mostly with low to undetectable replication, as described in Table 1.

[4] = test system: PBMCs obtained from uninfected individuals; experiment: PGE2 release by PBMCs from uninfected individuals (ELISA); format: cell-based, human; settings: for effect on release of PGE2 in response to HIV-gp120: PBMCs from uninfected individuals, Prob 500 μM, 10Panx1 peptide 300 μM, TAK779 5 μM, AMD3100 5 μM; for induction of PGE2 secretion: treatment of uninfected PBMCs, 30 min
Method: as §1, §2

[5] = test system: PBMCs obtained from HIV-infected individuals; experiment: Spontaneous ATP release by PBMCs from HIV-infected individuals; format: cell-based, human; settings: no stimulation, Prob 500 μM, 10Panx1 peptide 300 μM
Method: as §3, §2

[6] = molecular target: T1, Panx-1 channels; experiment: Ethidium (Etd) dye uptake, PBMCs from uninfected individuals; format: cell-based; settings: for effect on basal Etd uptake: PBMCs from uninfected individuals, Prob 500 μM, CBX 500 μM, 10Panx peptide 200 μM, FIG. 1C; for induction of Panx-1 channel opening: treatment of uninfected PBMCs, 30 min, gp120 1 μg/ml, TNF-α 10 ng/ml, IL-1β 10 U/ml, IFN-γ 10 ng/ml, LPS 1 μg/ml
Method: as §4, §5

[7] = molecular target: CD4 on PBMCs from uninfected individuals (human) (UniProt P01730); experiment: cell-based or functional assay
[8] = test system: BBB model (primary human BMVEC and primary human astrocytes); experiment: BBB disruption after transmigration of HIVADA infected PBMCs; format: cell-based
Method: (§6) Blood-brain barrier (BBB) model: This in vitro BBB model consists of primary human BMVEC and primary human astrocytes in co-culture on opposite sides of a gelatin-coated, 3 μm pore-size tissue culture insert (Falcon, B D, Franklin Lakes, N.J.) as described by the inventors. Co-cultures were maintained for three days to enable contact between astrocyte endfeet with BMVEC on the opposite side of the model as described. After this, the BBB model was treated with different ATP concentrations (Cat #A1852, Sigma Chemical Co., St. Louis, Mo., USA), and BBB permeability was measured using BSA conjugated to Evans Blue, as described by the inventors.
(§7) PBMCs infected with the HIVADA were added to the top chamber of BBB co-cultures without CCL2 in the bottom chamber (HIV).

[9] = test system: HIVADA infected PBMCs (lymphocytes and monocytes); experiment: Transmigration of HIVADA infected PBMCs across the in vitro BBB model in response to CCL2; format: cell-based, human; settings: added to the co-culture; oATP 100 μM, apyrase 100 units/ml; data not shown
Method: as §6, §7

[10] = test system: purinergic receptors; settings: in vivo mouse model [116]; cited from earlier work
[11] = test system: HIV; experiment: HIV replication and viral entry; format: cell-based
[12] = added to the co-culture, oATP 100 μM, apyrase 100 units/ml, data not shown

Row | Molecule | effect on spontaneous release of PGE2 [1] | effect on release of ATP in response to HIV-gp120 [2] | effect on spontaneous Panx-1 channel opening (Etd uptake) [3] | effect on release of PGE2 in response to HIV-gp120 [4] | effect on spontaneous release of ATP [5] | effect on basal Etd uptake [6] | other results
1 | c1cc(CN2CCCNCCNCCCNCC2)ccc1CN1CCCNCCNCCCNCC1 [AMD3100] | no significant effects | prevented the release | did not prevent | prevented the release | no significant effects | – | –
2 | Cc1ccc(-c2ccc3c(c2)C=C(C(=O)Nc2ccc(C[N+](C)(C)C4CCOCC4)cc2)CCC3)cc1.[Cl-] [TAK779] | no significant effects | prevented the release | did not prevent | prevented the release | no significant effects | – | –
3 | [La] [lanthanum] | did not alter | did not alter | did not affect | did not alter | did not alter | did not have any effect | effect on spontaneous release of PGE2 ([1]; listed as Lanthanum): did not affect; effect on release of ATP in response to HIV-gp120 ([2]; listed as Lanthanum): did not affect; effect on release of PGE2 in response to HIV-gp120 ([4]; listed as Lanthanum): did not affect; effect on spontaneous release of ATP ([5]; listed as Lanthanum): did not affect
4 | IL-1p: cytokine used to treat uninfected PBMCs | – | – | – | – | – | – | induction of ATP secretion [2]: does not induce; induction of PGE2 secretion [4]: does not induce; induction of Panx-1 channel opening [6]: does not induce
5 | recombinant protein HIV-gp120 (HIV-Bal) (ligand) | – | – | – | – | – | – | release of ATP after 30 min (uninfected PBMCs, gp120 1 µg/ml) [7]: 5.9 µM; release of PGE2 after 30 min (uninfected PBMCs, gp120 1 µg/ml) [7]: 56.8 pg/mL
6 | apyrase | – | – | – | – | – | – | effect on BBB disruption [8, 12]: blocked; effect on transmigration [9]: blocked
7 | Nc1ncnc2c1ncn2[C@@H](C=O)O[C@@H](C=O)COP(=O)(O)OP(=O)(O)OP(=O)(O)O [oATP] | – | – | – | – | – | – | effect on BBB disruption [8, 12]: blocked; effect on transmigration [9]: blocked; onset of diabetes and inflammatory bowel disease [10]: can prevent the onset of diabetes and inflammatory bowel disease; systemic blocking of purinergic receptors [10]: good systemic blocker of purinergic receptors; inhibition of HIV replication and viral entry [11]: potent inhibitor
8 | CCCN(CCC)S(=O)(=O)c1ccc(C(=O)O)cc1 [probenecid] | prevented the release | prevented the release | – | prevented the release | prevented the release | did not affect | effect on BBB disruption ([8]; HIVADA infected PBMCs preincubated with blocker, CCL2): reduced BBB disruption; effect on pannexin-1 channel opening and Etd uptake [3]: able to prevent the opening of the pannexin-1 channel and Etd uptake
9 | CC1(C)[C@@H](OC(=O)CCC(=O)O)CC[C@]2(C)[C@H]3C(=O)C=C4[C@@H]5C[C@@](C)(C(=O)O)CC[C@]5(C)CC[C@@]4(C)[C@]3(C)CC[C@@H]12 [carbenoxolone] | – | – | – | – | – | did not affect | effect on pannexin-1 channel opening and Etd uptake [3]: able to prevent the opening of the pannexin-1 channel and Etd uptake
10 | TNF-α | – | – | – | – | – | – | induction of ATP secretion [2]: does not induce; induction of PGE2 secretion [4]: does not induce; induction of Panx-1 channel opening [6]: does not induce
11 | IFN-γ: cytokine used to treat uninfected PBMCs (protein, UniProt P01579 24-161, looked up) Interferon gamma: QDPYVKEAENLKKYFNAGHSDVADNGTLFLGILKNWKEESDRKIMQSQIVSFYFKLFKNFKDDQSIQKSVETIKEDMNVKFFNSNKKKRDDFEKLTNYSVTDLNVQRKAIHELIQVMAELSPAAKTGKRKRSQMLFRG | – | – | – | – | – | – | induction of ATP secretion [2]: does not induce; induction of PGE2 secretion [4]: does not induce; induction of Panx-1 channel opening [6]: does not induce
12 | Cx43^E2: a peptide that specifically blocks Cx43 hemichannels (peptide) VH: EVQLQQPGAELVKPGASVKLSCKASGYTFTSYYMYWVKQRPGQGLEWIGGINPSNGGTNFNEKFKNKATLTVDKSSSTAYMQLSSLTSEDSAVYYCTREGNPYYTMNYWGQGTSVTVSS VL: DIVMTQSPSSLSVSAGEKVTMSCKSSQSLLNSGNQKTYLAWYQQKPGQPPKLLIYGASTRESGVPDRFTGSGSGTDFTLTISSVQAEDLAVYYCQNDHSYPFTFGSGTKLEIK | did not alter; also recorded: did not affect | did not alter; also recorded: did not affect | did not affect | did not alter; also recorded: did not affect | did not alter; also recorded: did not affect | did not have any effect | –
